What all share (format): cell-based
Experiment [1] deals with P. aeruginosa strain PAO1. In words: Improved biofilm dispersion screen (already-formed biofilms, crystal violet). To be noted: Pseudomonas aeruginosa, 30 mM NaOH step, positive = dispersion, negative = enhancement of pre-existing biofilm, quadruplicate, read-out: average percentage reduction of biofilm relative to the two control values (dispersion). On the procedure:
(§1) A modification of method disclosed in Reference Example 2, which greatly improves the sensitivity and reproducibility of the dispersion screen is hereby disclosed. […] In the modification described herein, compounds are added in the presence of the fresh liquid growth media, such that the resultant biofilms continue to grow, unless a test compound triggers their dispersion. Overnight cultures are made as above, and 100 μL of the appropriate liquid growth media are dispensed into duplicate 96 well microplates—in this fashion, two identical microplates are set up for each bacterial species to be assayed. Neither compounds nor DMSO are added prior to the inoculation of bacteria, and growth in the duplicate plates for 24 hours is allowed using the conditions specified in Reference Example 1. After growth of biofilm to be tested in the wells, cells present in biofilm attached to one of the duplicate microplates is stained with CV, quantitated as described in Reference Example 1, and the data for the entire plate averaged, resulting in a growth control value, t0. The remaining replicate of each microplate pairs is treated with compounds in DMSO, or DMSO alone for control wells, by first removing the cell suspensions from the wells, then adding fresh 100 μL volumes of the same appropriate liquid growth media, followed by direct addition and mixing of the compound DMSO solutions to give final compound concentrations of 390 μM. Incubation of the compound-containing microplates is then continued for an additional 22–26 hours using the same conditions described in Reference Example 1. Cell suspensions are then removed, 100 μL per well of a 0 mM NaOH (S. epidermidis), 20 mM NaOH (P. fluorescens), or 30 mM NaOH (P. aeruginosa) solution in PBS is added, and incubation at room temperature is allowed for 30 minutes. No addition of NaOH is made to the S. epidermidis suspension since a test assay indicated no amplification by base with S. epidermidis. The microplates are subsequently rinsed three times with 150 μL per well of PBS, followed by final liquid removal, staining with CV and quantitation as described in Reference Example 1. Data for each well that contained compound result in a compound value, R, and data for control wells that contained DMSO only are averaged to generate a second control value, t24. The effect of each compound tested on dispersion of the biofilm compared to the two control values is calculated thus: [formula] […] Data are expressed in terms of the average percentage reduction of biofilm formed in the presence of each compound, relative to the two control values, for quadruplicate samples. Assays are run as described above, using compound concentrations of 390 μM. Positive numbers indicate dispersion (reduction) of pre-existing biofilms by a compound, and negative numbers indicate enhancement (stimulation of growth) of pre-existing biofilms by a compound (percentage coefficients of variation are ≦15%).

For experiment [2], the system named is S. epidermidis strain ATCC 35984. The experiment is described as above. To be noted: Staphylococcus epidermidis, ATCC35984, no NaOH, positive = dispersion, negative = enhancement of pre-existing biofilm, quadruplicate, read-out: average percentage reduction of biofilm relative to the two control values (dispersion). As for the experimental part: as §1
The test system of experiment [3] is P. fluorescens strain ATCC 13525. The description is as above. The following applies: Pseudomonas fluorescens, ATCC13525, 20 mM NaOH step, positive = dispersion, negative = enhancement of pre-existing biofilm, quadruplicate, read-out: average percentage reduction of biofilm relative to the two control values (dispersion). As for the experimental part:
as §1

The subject of experiment [4] is P. aeruginosa strain PAO1. In words: Biofilm prevention screen (96-well microplate, crystal violet). The following applies: Pseudomonas aeruginosa, positive = prevention, negative = enhancement of biofilm formation, quadruplicate, read-out: average percentage reduction of biofilm formed relative to DMSO controls. On the procedure: (§2) Overnight cultures of 3 mL are made of P. aeruginosa strain PAO1 (grown in R2A medium (Handbook of Microbiological Media; CRC Press, 1997, second edition, R. M. Atlas, ed.), modified to omit Mg^2+ but to include 0.3–0.5% fructose (pH 7.0) and 3 μM ferrous ammonium sulfate), P. fluorescens strain ATCC 13525 (grown in R2A modified to omit Mg^2+ but to include 0.3–0.5% sodium pyruvate (pH 7.0)), S. epidermidis strain ATCC 35984 (grown in a ¼ dilution of TSB (Handbook of Microbiological Media; CRC Press, 1997, second edition, R. M. Atlas, ed.) supplemented with 1% fructose (pH 7.0) and 3 μM ferrous ammonium sulfate). To each type of growth medium, HEPES (pH 7.3) is optionally added to a final concentration of 10 mM.
(§3) To PS, PVC, or PP (preferably PP or PVC) round-bottom, 96-well microplates containing 100 μl per well of the respective growth medium as described above, compounds to be tested (dissolved in DMSO) are added and mixed, to give a final concentration of 250–500 μM. These microplates then also are used to make successive dilutions of the compounds in the same respective growth medium to yield microplates containing final concentrations of, for example, 160 μM and 32 μM of the same set of compounds. Control wells are included in the dilution series that contain only DMSO. From the 3 ml overnight cultures, each of the three dilution plate sets is inoculated with 5 μl per well of a 1:1 dilution in the same liquid growth media of the appropriate culture. The covered plate is then incubated with shaking, at 30° C. (for P. aeruginosa or P. fluorescens) or 37° C. (for S. epidermidis), at 200 rpm, for 16–26 hours, in a humidity controlled environment.
(§4) Cells present in biofilm attached to the microplate surface are stained with CV either after removal of the liquid from each well, followed by rinsing three times (aspiration and addition) with 150 μl per well phosphate buffered saline solution (PBS) and final addition of 100 μl per well of PBS, or by direct addition of stain to bacterial cultures without rinsing. To 100 μl per well of PBS or of bacterial culture, 25 μl/well of 1% CV solution (in ˜10% ethanol) is added. After incubation at room temperature for 45 minutes, the dye solution is removed from the plates. Residual dye is immediately removed by gentle rinsing with a stream of deionized water by filling and inverting the plates 4–5 times, or by using an automated pipettor. Rinsed plates are air-dried at room temperature for 0.5–2 hours. Bound dye is extracted by the addition of 150 μL per well of 95% ethanol, followed by vigorous mixing for 10–15 seconds and incubation for 45 minutes at room temperature without shaking. Subsequently, either undiluted or diluted (in ethanol) samples of extracted CV are transferred to flat bottom, polystyrene microtiter plates and absorbances at 586 nm were measured in a microplate reader. Readings from wells containing compounds are compared to the average of data from control wells that contain only DMSO. Replicate samples are measured, and results are reported as averages of the replicate well data points.
(§5) Data are expressed in terms of the average percentage reduction of biofilm formed in the presence of each compound, relative to the DMSO controls, for quadruplicate samples. Assays are run using the three compound concentrations indicated. Positive numbers indicate prevention of biofilm formation by a compound, and negative numbers indicate enhancement of biofilm formation by a compound (percentage coefficients of variation are ≦10%).

Experiment [5] concerns S. epidermidis strain ATCC 35984. The experiment is described as above. To be noted: Staphylococcus epidermidis, positive = prevention, negative = enhancement of biofilm formation, quadruplicate, read-out: average percentage reduction of biofilm formed relative to DMSO controls; for inhibition at 32 µM: ATCC35984, 32 μM; for inhibition at 160 µM: ATCC35984, 160 μM; for inhibition at 390 µM: ATCC35984, 390 μM. As for the experimental part: as §2, §3, §4, §5

The test system of experiment [6] is P. fluorescens strain ATCC 13525. Described as above. The following applies: Pseudomonas fluorescens, positive = prevention, negative = enhancement of biofilm formation, quadruplicate, read-out: average percentage reduction of biofilm formed relative to DMSO controls; for inhibition at 32 µM: ATCC13525, 32 μM; for inhibition at 160 µM: ATCC13525, 160 μM; for inhibition at 390 µM: ATCC13525, 390 μM. As for the experimental part:
as §2, §3, §4, §5

For the compound `CCCCNC(=O)[C@@H]1CCCN1` [Compound 165], the inhibition at 390 µM in experiment [1] was 0%; in experiment [2], -3%; in experiment [3] it was 6%; in experiment [4], 1%; in experiment [5], -12%; in experiment [6] it was 20%. In addition, the inhibition at 32 µM is 2% in experiment [4], -6% in experiment [5] and 10% in experiment [6]. In addition, the inhibition at 160 µM in experiment [4] was -16%; in experiment [5] it was -15%; in experiment [6], 4%.
Turning to `CCCCCCCCCCNC(=O)[C@@H]1CCN1C(=O)OC(C)(C)C` [Compound 285, N-(tert-Butoxycarbonyl)-(S)-(−)-2-azetidinecarboxylic acid n-decyl amide], the inhibition at 390 µM is -37% in experiment [1]; 0% in experiment [2]; -74% in experiment [3]; -21% in experiment [4]; 66% in experiment [5]; -32% in experiment [6]. Besides, the inhibition at 32 µM in experiment [4] was 7%; in experiment [5], 2%; in experiment [6] it was -12%. In addition, the results for the inhibition at 160 µM in experiment [4], in experiment [5] and in experiment [6] were -20%, 17% and -44%, respectively.
As to `CCCCCCNC(=O)[C@@H]1CCCN1C(=O)OC(C)(C)C` [Compound 10], the inhibition at 390 µM in experiment [1] was -9%; in experiment [2], -6%; in experiment [3], -2%; in experiment [4], -16%; in experiment [5], -25%; in experiment [6], -6%. The inhibition at 32 µM was -7% in experiment [4], -18% in experiment [5] and -1% in experiment [6]. Moreover, the inhibition at 160 µM in experiment [4] is -16%; in experiment [5], -17%; in experiment [6], -5%.
For `CCCCNC(=O)[C@H]1CCCN1` [Compound 162], the inhibition at 390 µM in experiment [1] is -23%; in experiment [2] it was 0%; in experiment [3], 0%; in experiment [4], -9%; in experiment [5], -47%; in experiment [6] it was 11%. In addition, the inhibition at 32 µM in experiment [4] was -9%; in experiment [5], -4%; in experiment [6] it was 7%. In addition, the results for the inhibition at 160 µM in experiment [4], in experiment [5] and in experiment [6] were -13%, -8% and 1%, respectively.
Regarding `CCCCCCCCCCNC(=O)C1CCCN1C(C)=O` (centres unmarked) [Compound 9], the inhibition at 390 µM is -68% in experiment [1]; 21% in experiment [2]; -1% in experiment [3]; -26% in experiment [4]; 33% in experiment [5]; 0% in experiment [6]. Also, the inhibition at 32 µM was -6% in experiment [4], -21% in experiment [5] and -6% in experiment [6]. For the same compound, the inhibition at 160 µM in experiment [4] was -4%; in experiment [5] it was -69%; in experiment [6], -9%.
On to `CCCCCCNC(=O)[C@@H]1CCN1` [Compound 287], for which the inhibition at 390 µM in experiment [1] was -70%; in experiment [2] it was 71%; in experiment [3] it was -18%; in experiment [4], -2%; in experiment [5], 101%; in experiment [6], 40%. In addition, the inhibition at 32 µM in experiment [4] is -1%; in experiment [5], 74%; in experiment [6] it was -42%. Also, the inhibition at 160 µM in experiment [4] was 11%; in experiment [5], 101%; in experiment [6], -7%.
On to `CCCCCCCCCCCCNC(=O)[C@@H]1CCN1C(=O)OC(C)(C)C` [Compound 286], for which the inhibition at 390 µM is -83% in experiment [1]; 0% in experiment [2]; -54% in experiment [4]; 12% in experiment [5]; -98% in experiment [6]. Besides, the inhibition at 32 µM was -5% in experiment [4], -15% in experiment [5] and -9% in experiment [6]. The figures for the inhibition at 160 µM in experiment [4], in experiment [5] and in experiment [6] were -22%, -29% and -60%, respectively.

The record behind these values is patent US7018642B2 (The Procter & Gamble Company, priority 2001, dated 2006).
